Values of other authors as cited in patent US7173016B2, “Composition and method for treating graft-versus-host disease” (Mayne Pharma (USA) Inc., priority 2001, dated 2007).

Details: acid-catalyzed glycosidic cleavage

acid stability: highly acid-labile
Compound: OC[C@H]1O[C@@H](n2cnc3c2NC=NC[C@H]3O)C[C@@H]1O [pentostatin, 2′-deoxycoformycin]
